Reference: PubChem BioAssay AID288 (DTP/NCI, 2004)
Several values for one entry are separate records, joined by “and”; a condition that tells them apart may be missing. Equal entries are not always repeated. Results filed as inconclusive are left out.

System: BDF1 mice, M5076 sarcoma s.c., survival/tumor T/C
Experiment: NCI In Vivo Anticancer Drug Screen. Data for tumor model Sarcoma M5076 (subcutaneous) in B6D2F1 (BDF1) mice
Experimental: The antitumor activity of compounds was measured in mice bearing transplantable tumors. Survival or tumor size were measured and the results are expressed as the measurement made in the treated group (T) divided by the measurement made in the vehicle treated control group (C). The tumor model used in this assay is Sarcoma M5076 (subcutaneous) in B6D2F1 (BDF1) mice

[1] = endpoint: median survival time, dose: 50.0 mg/kg/injection, schedule: Q01DX009 (ip), vehicle: saline, higher = longer survival
[2] = endpoint: median survival time, dose: 50.0 mg/kg/injection, schedule: Q01DX009 (ip), vehicle: saline with Tween-80, higher = longer survival
[3] = endpoint: median survival time, dose: 100.0 mg/kg/injection, schedule: Q01DX009 (ip), vehicle: saline with Tween-80, higher = longer survival
[4] = endpoint: median tumor weight (est.), dose: 50.0 mg/kg/injection, schedule: Q01DX009 (ip), vehicle: saline with Tween-80, higher = larger tumour
[5] = endpoint: median tumor weight (est.), dose: 100.0 mg/kg/injection, schedule: Q01DX009 (ip), vehicle: saline with Tween-80, higher = larger tumour
[6] = endpoint: median survival time, dose: 200.0 mg/kg/injection, schedule: Q01DX009 (ip), vehicle: saline with Tween-80, higher = longer survival
[7] = endpoint: median tumor weight (est.), dose: 200.0 mg/kg/injection, schedule: Q01DX009 (ip), vehicle: saline with Tween-80, higher = larger tumour

With Nc1nncs1 the T/C (endpoint: mean tumor weight, dose: 18.8 mg/kg/injection, schedule: Q02DX011 (ip), vehicle: saline, higher = larger tumour) was 43 % of control, the T/C (endpoint: mean tumor weight, dose: 37.5 mg/kg/injection, schedule: Q02DX011 (ip), vehicle: saline, higher = larger tumour) was 3 % of control and the T/C (endpoint: median survival time, dose: 6.25 mg/kg/injection, schedule: Q01DX009 (ip), vehicle: saline, higher = longer survival) was 103 % of control. For the same molecule, the T/C (endpoint: median survival time, dose: 12.5 mg/kg/injection, schedule: Q01DX009 (ip), vehicle: saline, higher = longer survival) was 111 % of control, the T/C (endpoint: median survival time, dose: 25.0 mg/kg/injection, schedule: Q01DX009 (ip), vehicle: saline, higher = longer survival) was 121 % of control and the T/C [1] was 122 % of control. For the same molecule, the T/C (endpoint: median tumor weight (est.), dose: 6.25 mg/kg/injection, schedule: Q01DX009 (ip), vehicle: saline, higher = larger tumour) was 75 % of control, the T/C (endpoint: median tumor weight (est.), dose: 12.5 mg/kg/injection, schedule: Q01DX009 (ip), vehicle: saline, higher = larger tumour) was 53 % of control and the T/C (endpoint: median tumor weight (est.), dose: 18.8 mg/kg/injection, schedule: Q02DX011 (ip), vehicle: saline, higher = larger tumour) was 47 % of control. The T/C (endpoint: median tumor weight (est.), dose: 25.0 mg/kg/injection, schedule: Q01DX009 (ip), vehicle: saline, higher = larger tumour) was 22 % of control.
For CC(=O)Nc1ccc(OC(=O)Nc2ccc(C)c(NC(=O)Oc3ccc(NC(C)=O)cc3)c2)cc1, the T/C [2] was 113 % of control, the T/C [3] was 95 % of control and the T/C [4] was 47 % of control. For the same molecule, the T/C [5] was 187 % of control.
With C1CN(P2(N3CC3)=NP(N3CC3)(N3CC3)=NP(N3CC3)(N3CC3)=N2)CCO1 (stereo not drawn) the T/C (endpoint: median survival time, dose: 6.25 mg/kg/injection, schedule: Q02DX011 (ip), vehicle: saline, higher = longer survival) was 99 % of control, the T/C (endpoint: median survival time, dose: 12.5 mg/kg/injection, schedule: Q02DX011 (ip), vehicle: saline, higher = longer survival) was 105 % of control and the T/C (endpoint: median survival time, dose: 25.0 mg/kg/injection, schedule: Q02DX011 (ip), vehicle: saline, higher = longer survival) was 122 % of control. The T/C (endpoint: median survival time, dose: 50.0 mg/kg/injection, schedule: Q02DX011 (ip), vehicle: saline, higher = longer survival) was 89 % of control.
COc1ccc(/C=C2\SC(=S)N(C3CC3)C2=O)cc1OC was tested, and the T/C [2] was 95 % of control, the T/C [3] was 93 % of control and the T/C [6] was 100 % of control. The T/C [4] was 90 % of control, the T/C [5] was 88 % of control and the T/C [7] was 79 % of control.
With CCCCOc1ccc(-n2c(=O)[nH]c3ccccc3c2=O)cc1 the T/C [2] was 101 % of control, the T/C [3] was 94 % of control and the T/C [6] was 101 % of control. For the same molecule, the T/C [4] was 97 % of control, the T/C [5] was 100 % of control and the T/C [7] was 105 % of control.
With NCCNCC(O)CO (stereo not drawn) the T/C [1] was 90 % of control, the T/C (endpoint: median survival time, dose: 100.0 mg/kg/injection, schedule: Q01DX009 (ip), vehicle: saline, higher = longer survival) was 112 % of control and the T/C (endpoint: median survival time, dose: 200.0 mg/kg/injection, schedule: Q01DX009 (ip), vehicle: saline, higher = longer survival) was 105 % of control. The T/C (endpoint: median tumor weight (est.), dose: 100.0 mg/kg/injection, schedule: Q01DX009 (ip), vehicle: saline, higher = larger tumour) was 76 % of control and the T/C (endpoint: median tumor weight (est.), dose: 200.0 mg/kg/injection, schedule: Q01DX009 (ip), vehicle: saline, higher = larger tumour) was 115 % of control.
With CC/C(=C(/CC)c1ccc(O)cc1)c1ccc(O)cc1 the T/C (endpoint: mean tumor weight, dose: 7.5 mg/kg/injection, schedule: Q02DX011 (ip), vehicle: Klucel (hydroxypropylcellulose) (HPC), higher = larger tumour) was 114 % of control, the T/C (endpoint: mean tumor weight, dose: 15.0 mg/kg/injection, schedule: Q02DX011 (ip), vehicle: Klucel (hydroxypropylcellulose) (HPC), higher = larger tumour) was 62 % of control and 87 % of control and the T/C (endpoint: mean tumor weight, dose: 60.0 mg/kg/injection, schedule: Q02DX011 (ip), vehicle: Klucel (hydroxypropylcellulose) (HPC), higher = larger tumour) was 55 % of control. The T/C (endpoint: median tumor weight (est.), dose: 15.0 mg/kg/injection, schedule: Q02DX011 (ip), vehicle: Klucel (hydroxypropylcellulose) (HPC), higher = larger tumour) was 88 % of control, the T/C (endpoint: median tumor weight (est.), dose: 30.0 mg/kg/injection, schedule: Q02DX011 (ip), vehicle: Klucel (hydroxypropylcellulose) (HPC), higher = larger tumour) was 66 % of control and the T/C (endpoint: median tumor weight (est.), dose: 60.0 mg/kg/injection, schedule: Q02DX011 (ip), vehicle: Klucel (hydroxypropylcellulose) (HPC), higher = larger tumour) was 28 % of control.
C[C@@H](CN1CC(=O)NC(=O)C1)N1CC(=O)NC(=O)C1 was tested, and the T/C (endpoint: median survival time, dose: 32.0 mg/kg/injection, schedule: Q01DX009 (ip), vehicle: saline with Tween-80, higher = longer survival) was 119 % of control, the T/C (endpoint: median survival time, dose: 64.0 mg/kg/injection, schedule: Q01DX009 (ip), vehicle: saline with Tween-80, higher = longer survival) was 108 % of control and 111 % of control and the T/C (endpoint: median survival time, dose: 128.0 mg/kg/injection, schedule: Q01DX009 (ip), vehicle: saline with Tween-80, higher = longer survival) was 115 % of control and 119 % of control. The T/C (endpoint: median tumor weight (est.), dose: 32.0 mg/kg/injection, schedule: Q01DX009 (ip), vehicle: saline with Tween-80, higher = larger tumour) was 68 % of control, the T/C (endpoint: median tumor weight (est.), dose: 64.0 mg/kg/injection, schedule: Q01DX009 (ip), vehicle: saline with Tween-80, higher = larger tumour) was 36 % of control and 58 % of control and the T/C (endpoint: median tumor weight (est.), dose: 128.0 mg/kg/injection, schedule: Q01DX009 (ip), vehicle: saline with Tween-80, higher = larger tumour) was 18 % of control and 37 % of control. For the same molecule, the T/C (endpoint: median tumor weight (est.), dose: 256.0 mg/kg/injection, schedule: Q01DX009 (ip), vehicle: saline with Tween-80, higher = larger tumour) was 14 % of control.
